# What was measured:
# BJeLR = test: Modulatory profiling: Alamar Blue viability, lethal compound cotreated with death modulator (EC50, AUC); assay type: cell-based, human; design: AUC, modulator BJ.Gd3+ / AUC, modulator BJ.LNAME / AUC, modulator BJ.Lmin / AUC, modulator BJ.3MA / AUC, modulator BJ.ALLN / AUC, modulator BJ.Boc D / AUC, modulator BJ.CHX / AUC, modulator BJ.Co2+ / AUC, modulator BJ.Nec-1 / AUC, modulator BJ.Pepstatin / AUC, modulator BJ.TLCK / AUC, modulator BJ.atoc / AUC, modulator BJ.trolox / AUC, modulator BJ.zVAD: unit not given beside the values; conditions: BJeLR cells, modulatory profile value (AUC); for AUC, modulator BJ.3MA: lethal compound cotreated with modulator 3MA; for AUC, modulator BJ.ALLN: lethal compound cotreated with modulator ALLN; for AUC, modulator BJ.Boc D: lethal compound cotreated with modulator Boc D; for AUC, modulator BJ.CHX: lethal compound cotreated with modulator CHX; for AUC, modulator BJ.Co2+: lethal compound cotreated with modulator Co2+; for AUC, modulator BJ.DPQ: lethal compound cotreated with modulator DPQ; for AUC, modulator BJ.Gd3+: lethal compound cotreated with modulator Gd3+; for AUC, modulator BJ.LNAME: lethal compound cotreated with modulator LNAME; for AUC, modulator BJ.Lmin/NAD+: lethal compound cotreated with modulator Lmin/NAD+; for AUC, modulator BJ.Lmin: lethal compound cotreated with modulator Lmin; for AUC, modulator BJ.NAD+: lethal compound cotreated with modulator NAD+; for AUC, modulator BJ.NMMA: lethal compound cotreated with modulator NMMA; for AUC, modulator BJ.Nec-1: lethal compound cotreated with modulator Nec-1; for AUC, modulator BJ.Pepstatin: lethal compound cotreated with modulator Pepstatin; for AUC, modulator BJ.TLCK: lethal compound cotreated with modulator TLCK; for AUC, modulator BJ.atoc: lethal compound cotreated with modulator atoc; for AUC, modulator BJ.trolox: lethal compound cotreated with modulator trolox; for AUC, modulator BJ.zVAD: lethal compound cotreated with modulator zVAD; for AUC, modulator BJ.3MA: reference of the scale not given here; for AUC, modulator BJ.ALLN: reference of the scale not given here; for AUC, modulator BJ.Boc D: reference of the scale not given here; for AUC, modulator BJ.CHX: reference of the scale not given here; for AUC, modulator BJ.Co2+: reference of the scale not given here; for AUC, modulator BJ.DPQ: reference of the scale not given here; for AUC, modulator BJ.Gd3+: reference of the scale not given here; for AUC, modulator BJ.LNAME: reference of the scale not given here; for AUC, modulator BJ.NAD+: reference of the scale not given here; for AUC, modulator BJ.NMMA: reference of the scale not given here; for AUC, modulator BJ.Nec-1: reference of the scale not given here; for AUC, modulator BJ.Pepstatin: reference of the scale not given here; for AUC, modulator BJ.TLCK: reference of the scale not given here
# HT-1080 = test: as above; assay type: cell-based; design: AUC, modulator HT.3MA / AUC, modulator HT.ALLN / AUC HT.ATA / AUC HT.ActD / AUC HT.BHA / AUC HT.BHT / AUC HT.BocD / AUC HT.CHX / AUC HT.Co2+ / AUC HT.DPQ / AUC HT.EGTA / AUC HT.Lmim / AUC HT.NAD+ / AUC HT.Nec-1 / AUC HT.SP600125 / AUC HT.TLCK / AUC HT.U0126: unit not given beside the values; conditions: for AUC HT.ATA: HT-1080, modulator ATA; for AUC HT.ActD: HT-1080, modulator ActD; for AUC HT.BHA: HT-1080, modulator BHA; for AUC HT.BHT: HT-1080, modulator BHT; for AUC HT.BocD: HT-1080, modulator BocD; for AUC HT.CHX: HT-1080, modulator CHX; for AUC HT.Co2+: HT-1080, modulator Co2+; for AUC HT.CspA: HT-1080, modulator CspA; for AUC HT.DPQ: HT-1080, modulator DPQ; for AUC HT.EGTA: HT-1080, modulator EGTA; for AUC HT.Gd3+: HT-1080, modulator Gd3+; for AUC HT.LNAME: HT-1080, modulator LNAME; for AUC HT.Lmim: HT-1080, modulator Lmim; for AUC HT.NAD+: HT-1080, modulator NAD+; for AUC HT.NMMA: HT-1080, modulator NMMA; for HT.atoc (AUC) / HT.bCarotene (AUC) / HT.deferox (AUC) / HT.digoxin (AUC) / HT.trolox (AUC) / HT.zVAD (AUC): HT-1080; for HT.atoc (AUC): modulator atoc; for HT.bCarotene (AUC): modulator bCarotene; for HT.deferox (AUC): modulator deferox; for HT.digoxin (AUC): modulator digoxin; for HT.trolox (AUC): modulator trolox; for HT.zVAD (AUC): modulator zVAD; for AUC, modulator HT.3MA / AUC, modulator HT.ALLN: HT-1080 cells, modulatory profile value (AUC); for AUC, modulator HT.3MA: lethal compound cotreated with modulator 3MA; for AUC, modulator HT.ALLN: lethal compound cotreated with modulator ALLN; for AUC HT.BHA: reference of the scale not given here; for AUC HT.EGTA: reference of the scale not given here
structure (smiles),measurement,setting,value
O=c1c(Cl)c(Cl)cnn1-c1ccc(Cl)c(C(F)(F)F)c1 [CIL25],"AUC, modulator BJ.3MA",BJeLR,0.02374
same,"AUC, modulator BJ.ALLN",BJeLR,−0.07209
same,"AUC, modulator BJ.Boc D",BJeLR,−0.009758
same,"AUC, modulator BJ.CHX",BJeLR,−0.0273
same,"AUC, modulator BJ.Co2+",BJeLR,−0.003244
same,"AUC, modulator BJ.DPQ",BJeLR,0.001852
same,"AUC, modulator BJ.Gd3+",BJeLR,0.04216
same,"AUC, modulator BJ.LNAME",BJeLR,−0.004428
same,"AUC, modulator BJ.Lmin/NAD+",BJeLR,0.09246
same,"AUC, modulator BJ.Lmin",BJeLR,0.01628
same,"AUC, modulator BJ.NAD+",BJeLR,0.06106
same,"AUC, modulator BJ.NMMA",BJeLR,0.01683
same,"AUC, modulator BJ.Nec-1",BJeLR,0.03297
same,"AUC, modulator BJ.Pepstatin",BJeLR,−0.00415
same,"AUC, modulator BJ.TLCK",BJeLR,−0.05889
same,"AUC, modulator BJ.atoc",BJeLR,0.02909
same,"AUC, modulator BJ.trolox",BJeLR,−0.001029
same,"AUC, modulator BJ.zVAD",BJeLR,0.03879
same,AUC HT.ATA,HT-1080,0.06489
same,AUC HT.ActD,HT-1080,−0.03585
same,AUC HT.BHA,HT-1080,−0.01547
same,AUC HT.BHT,HT-1080,−0.1041
same,AUC HT.BocD,HT-1080,0.05183
same,AUC HT.CHX,HT-1080,−0.01604
same,AUC HT.Co2+,HT-1080,−0.06128
same,AUC HT.CspA,HT-1080,0.01073
same,AUC HT.DPQ,HT-1080,0.02629
same,AUC HT.EGTA,HT-1080,0.01624
same,AUC HT.Gd3+,HT-1080,0.01713
same,AUC HT.LNAME,HT-1080,0.02663
same,AUC HT.Lmim,HT-1080,0.01684
same,AUC HT.NAD+,HT-1080,−0.03051
same,AUC HT.NMMA,HT-1080,−0.006639
same,HT.atoc (AUC),HT-1080,0.04405
same,HT.bCarotene (AUC),HT-1080,0.009082
same,HT.deferox (AUC),HT-1080,0.07763
same,HT.digoxin (AUC),HT-1080,−0.007149
same,HT.trolox (AUC),HT-1080,−0.02562
same,HT.zVAD (AUC),HT-1080,0.03342
same,"AUC, modulator HT.3MA",HT-1080,0.01605
same,"AUC, modulator HT.ALLN",HT-1080,−0.0257
CC1CC2=C(CC1CNCCCN(C)C)C(C)(C)CCC2 (stereo not shown) [CIL26],"AUC, modulator BJ.3MA",BJeLR,0.05124
same,"AUC, modulator BJ.ALLN",BJeLR,−0.0584
same,"AUC, modulator BJ.Boc D",BJeLR,−0.05574
same,"AUC, modulator BJ.CHX",BJeLR,−0.001733
same,"AUC, modulator BJ.Co2+",BJeLR,0.04871
same,"AUC, modulator BJ.DPQ",BJeLR,0.01829
same,"AUC, modulator BJ.Gd3+",BJeLR,0.004541
same,"AUC, modulator BJ.LNAME",BJeLR,−0.03322
same,"AUC, modulator BJ.Lmin/NAD+",BJeLR,0.09111
same,"AUC, modulator BJ.Lmin",BJeLR,−0.0139
same,"AUC, modulator BJ.NAD+",BJeLR,0.005678
same,"AUC, modulator BJ.NMMA",BJeLR,0.006781
same,"AUC, modulator BJ.Nec-1",BJeLR,−0.03974
same,"AUC, modulator BJ.Pepstatin",BJeLR,0.02268
same,"AUC, modulator BJ.TLCK",BJeLR,−0.06133
same,"AUC, modulator BJ.atoc",BJeLR,0.05008
same,"AUC, modulator BJ.trolox",BJeLR,0.03147
same,"AUC, modulator BJ.zVAD",BJeLR,−0.003259
same,AUC HT.ATA,HT-1080,0.04192
same,AUC HT.ActD,HT-1080,−0.002488
same,AUC HT.BHA,HT-1080,−0.1441
same,AUC HT.BHT,HT-1080,−0.1215
same,AUC HT.BocD,HT-1080,0.008992
same,AUC HT.CHX,HT-1080,−0.02052
same,AUC HT.Co2+,HT-1080,−0.02744
same,AUC HT.CspA,HT-1080,−0.04225
same,AUC HT.DPQ,HT-1080,0.02987
same,AUC HT.EGTA,HT-1080,0.009998
same,AUC HT.Gd3+,HT-1080,−0.005334
same,AUC HT.LNAME,HT-1080,0.001215
same,AUC HT.Lmim,HT-1080,−0.004
same,AUC HT.NAD+,HT-1080,−0.01406
same,AUC HT.NMMA,HT-1080,−0.009692
same,HT.atoc (AUC),HT-1080,0.04649
same,HT.bCarotene (AUC),HT-1080,−0.03349
same,HT.deferox (AUC),HT-1080,−0.1033
same,HT.digoxin (AUC),HT-1080,−0.03641
same,HT.trolox (AUC),HT-1080,−0.0327
same,HT.zVAD (AUC),HT-1080,−0.01226
same,"AUC, modulator HT.3MA",HT-1080,0.0321
same,"AUC, modulator HT.ALLN",HT-1080,0.001592
Cc1cc(C)c2c(=O)n(CC(=O)NCCCN3CCN(c4ccccc4F)CC3)sc2n1 [CIL50],"AUC, modulator BJ.3MA",BJeLR,−0.001613
same,"AUC, modulator BJ.ALLN",BJeLR,−0.008924
same,"AUC, modulator BJ.Boc D",BJeLR,0.03113
same,"AUC, modulator BJ.CHX",BJeLR,0.1415
same,"AUC, modulator BJ.Co2+",BJeLR,−0.0178
same,"AUC, modulator BJ.DPQ",BJeLR,−0.03869
same,"AUC, modulator BJ.Gd3+",BJeLR,−0.02113
same,"AUC, modulator BJ.LNAME",BJeLR,0.03227
same,"AUC, modulator BJ.Lmin/NAD+",BJeLR,0.01676
same,"AUC, modulator BJ.Lmin",BJeLR,0.03123
same,"AUC, modulator BJ.NAD+",BJeLR,−0.08482
same,"AUC, modulator BJ.NMMA",BJeLR,−0.004554
same,"AUC, modulator BJ.Nec-1",BJeLR,−0.05683
same,"AUC, modulator BJ.Pepstatin",BJeLR,0.003838
same,"AUC, modulator BJ.TLCK",BJeLR,−0.05225
same,AUC HT.ATA,HT-1080,0.06518
same,AUC HT.ActD,HT-1080,−0.00775
same,AUC HT.BHA,HT-1080,0.006655
same,AUC HT.BHT,HT-1080,−0.06029
same,AUC HT.BocD,HT-1080,0.004017
same,AUC HT.CHX,HT-1080,−0.04825
same,AUC HT.Co2+,HT-1080,−0.08688
same,AUC HT.CspA,HT-1080,−0.01271
same,AUC HT.DPQ,HT-1080,−0.01588
same,AUC HT.EGTA,HT-1080,−0.02244
same,AUC HT.Gd3+,HT-1080,−0.03877
same,AUC HT.LNAME,HT-1080,0.01806
same,AUC HT.Lmim,HT-1080,−0.00536
same,AUC HT.NAD+,HT-1080,0.009799
same,AUC HT.NMMA,HT-1080,0.004196
same,HT.atoc (AUC),HT-1080,0.06547
same,HT.bCarotene (AUC),HT-1080,0.01961
same,HT.deferox (AUC),HT-1080,−0.04084
same,HT.digoxin (AUC),HT-1080,0.02124
same,HT.trolox (AUC),HT-1080,−0.01565
same,HT.zVAD (AUC),HT-1080,0.02907
CC(C)C1CC(CCNCc2ccc3c(c2)OCO3)(c2ccccc2)CCO1 (stereo not shown) [CIL51],"AUC, modulator BJ.3MA",BJeLR,0.05908
same,"AUC, modulator BJ.ALLN",BJeLR,−0.2032
same,"AUC, modulator BJ.Boc D",BJeLR,−0.0008828
same,"AUC, modulator BJ.CHX",BJeLR,0.1696
same,"AUC, modulator BJ.Co2+",BJeLR,0.06399
same,"AUC, modulator BJ.DPQ",BJeLR,0.04077
same,"AUC, modulator BJ.Gd3+",BJeLR,0.03263
same,"AUC, modulator BJ.LNAME",BJeLR,−0.04145
same,"AUC, modulator BJ.Lmin/NAD+",BJeLR,0.03468
same,"AUC, modulator BJ.Lmin",BJeLR,−0.07413
same,"AUC, modulator BJ.NAD+",BJeLR,−0.01737
same,"AUC, modulator BJ.NMMA",BJeLR,0.003016
same,"AUC, modulator BJ.Nec-1",BJeLR,0.03451
same,"AUC, modulator BJ.Pepstatin",BJeLR,−0.06742
same,"AUC, modulator BJ.TLCK",BJeLR,−0.04421
same,AUC HT.ATA,HT-1080,0.003579
same,AUC HT.ActD,HT-1080,0.02697
same,AUC HT.BHA,HT-1080,−0.07965
same,AUC HT.BHT,HT-1080,−0.08488
same,AUC HT.BocD,HT-1080,−0.01458
same,AUC HT.CHX,HT-1080,0.08663
same,AUC HT.Co2+,HT-1080,0.03908
same,AUC HT.CspA,HT-1080,0.00675
same,AUC HT.DPQ,HT-1080,0.0109
same,AUC HT.EGTA,HT-1080,0.04897
same,AUC HT.Gd3+,HT-1080,0.003288
same,AUC HT.LNAME,HT-1080,0.01091
same,AUC HT.Lmim,HT-1080,0.01293
same,AUC HT.NAD+,HT-1080,0.04394
same,AUC HT.NMMA,HT-1080,0.01562
same,HT.atoc (AUC),HT-1080,0.05135
same,HT.bCarotene (AUC),HT-1080,0.03796
same,HT.deferox (AUC),HT-1080,0.004062
same,HT.digoxin (AUC),HT-1080,−0.03821
same,HT.trolox (AUC),HT-1080,−0.01257
same,HT.zVAD (AUC),HT-1080,0.007799

# From patent US10947188B2, “Small molecule ferroptosis inducers” (THE TRUSTEES OF COLUMBIA UNIVERSITY IN THE CITY OF NEW YORK, priority 2016, dated 2021)
